# Assay results: patent publication US20150105252A1, “SUBSTITUTED PYRAZOLES AS HERBICIDES” (E I DU PONT DE NEMOURS AND COMPANY, priority 2013, published 2015)
# Assays:
# bromegrass, downy [1] = assay: Test D preemergence; assay type: in vivo, Bromus tectorum; details: for Plant response rating, Bromegrass, Downy: Preemergence, scale 0 to 100
# In short: (§1)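 Visual 0-100 rating (100 = complete control) against untreated plants, made 14 to 21 days after treatment in a controlled environment. Compounds, formulated with surfactant in non-phytotoxic solvent, were applied either to seeds just sown in silt loam or to 1- to 4-leaf plants (2 to 18 cm) grown in peat-based medium.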
# galium = assay: Test D preemergence; assay type: in vivo, Galium aparine; details: Preemergence, scale 0 to 100
# In short: as §1
# windgrass = assay: Test D postemergence; assay type: in vivo, Apera spica-venti; details: scale 0 to 100
# In short: as §1
# lambsquarters [2] = assay: Test D preemergence; assay type: in vivo, Chenopodium album; details: for Plant response rating, Lambsquarters: Preemergence, scale 0 to 100
# In short: as §1
# field poppy = assay: Test D postemergence; assay type: in vivo, Papaver rhoeas; details: scale 0 to 100
# In short: as §1
# chamomile [3] = assay: Test D preemergence; assay type: in vivo, Matricaria inodora; details: for Plant response rating, Chamomile: Preemergence, scale 0 to 100
# In short: as §1
# oat, wild [4] = assay: Test D preemergence; assay type: in vivo, Avena fatua; details: for Plant response rating, Oat, Wild: Preemergence, scale 0 to 100
# In short: as §1
# bluegrass = assay: Test D postemergence; assay type: in vivo, Poa annua; details: scale 0 to 100
# In short: as §1
# canarygrass = assay: Test D postemergence; assay type: in vivo, Phalaris minor; details: scale 0 to 100
# In short: as §1
# oat, wild [5] = assay: Test D postemergence; assay type: in vivo, Avena fatua; details: scale 0 to 100
# In short: as §1
# radish, wild = assay: Test D postemergence; assay type: in vivo, Raphanus raphanistrum; details: scale 0 to 100
# In short: as §1
# speedwell = assay: Test D postemergence; assay type: in vivo, Veronica persica; details: scale 0 to 100
# In short: as §1
# blackgrass = assay: Test D preemergence; assay type: in vivo, Alopecurus myosuroides; details: for Plant response rating, Blackgrass: Preemergence, scale 0 to 100
# In short: as §1
# chamomile [6] = assay: Test D postemergence; assay type: in vivo, Matricaria inodora; details: scale 0 to 100
# In short: as §1
# field violet = assay: Test D postemergence; assay type: in vivo, Viola arvensis; details: scale 0 to 100
# In short: as §1
# oilseed rape = assay: Test D postemergence; assay type: in vivo, Brassica napus; details: scale 0 to 100
# In short: as §1
# lambsquarters [7] = assay: Test D postemergence; assay type: in vivo, Chenopodium album; details: scale 0 to 100
# In short: as §1
# kochia = assay: Test D preemergence; assay type: in vivo, Kochia scoparia; details: for Plant response rating, Kochia: Preemergence, scale 0 to 100
# In short: as §1
# mustard, wild = assay: Test D postemergence; assay type: in vivo, Sinapis arvensis; details: scale 0 to 100
# In short: as §1
# bromegrass, downy [8] = assay: Test D postemergence; assay type: in vivo, Bromus tectorum; details: scale 0 to 100
# In short: as §1
# [9] = 16 g ai/ha, taken as preemergence
compound,measurement,setting,value
O=C(NC1CC1)c1cc(CCF)n(Cc2ccnc(C(F)(F)F)c2)n1 [Compound 176],"Plant response rating (scale 0 to 100), Bromegrass, Downy","bromegrass, downy [1]; [9]",0
same,"Plant response rating, Bromegrass, Downy","bromegrass, downy [1]; 31 g ai/ha",0
same,"Plant response rating, Bromegrass, Downy","bromegrass, downy [1]; 62 g ai/ha",15
same,"Plant response rating, Bromegrass, Downy","bromegrass, downy [1]; 125 g ai/ha",25
same,"Plant response rating, Galium",galium; 62 g ai/ha,60
same,"Plant response rating, Galium",galium; 125 g ai/ha,85
same,"Plant response rating, Windgrass","windgrass; Postemergence, 16 g ai/ha",5
same,Windgrass plant response rating,"windgrass; Postemergence, 31 g ai/ha",15
same,Windgrass plant response rating,"windgrass; Postemergence, 125 g ai/ha",25
same,Windgrass plant response rating,"windgrass; postemergence, 62 g ai/ha",15
same,"Plant response rating (scale 0 to 100), Lambsquarters",lambsquarters [2]; [9],0
same,"Plant response rating, Lambsquarters",lambsquarters [2]; 62 g ai/ha,65
same,"Plant response rating, Lambsquarters",lambsquarters [2]; 125 g ai/ha,95
same,"Plant response rating, Field Poppy","field poppy; Postemergence, 16 g ai/ha",45
same,Field Poppy plant response rating,"field poppy; Postemergence, 31 g ai/ha",50
same,Field Poppy plant response rating,"field poppy; Postemergence, 125 g ai/ha",65
same,Field Poppy plant response rating,"field poppy; postemergence, 62 g ai/ha",50
same,"Plant response rating (scale 0 to 100), Chamomile",chamomile [3]; [9],5
same,"Plant response rating, Chamomile",chamomile [3]; 31 g ai/ha,5
same,"Plant response rating, Chamomile",chamomile [3]; 62 g ai/ha,10
same,"Plant response rating, Chamomile",chamomile [3]; 125 g ai/ha,50
same,"Plant response rating (scale 0 to 100), Oat, Wild","oat, wild [4]; [9]",0
same,"Plant response rating, Oat, Wild","oat, wild [4]; 62 g ai/ha",10
same,"Plant response rating, Oat, Wild","oat, wild [4]; 125 g ai/ha",40
same,"Plant response rating, Bluegrass","bluegrass; Postemergence, 16 g ai/ha",5
same,Bluegrass plant response rating,"bluegrass; Postemergence, 31 g ai/ha",15
same,Bluegrass plant response rating,"bluegrass; Postemergence, 125 g ai/ha",25
same,Bluegrass plant response rating,"bluegrass; postemergence, 62 g ai/ha",15
same,"Plant response rating, Canarygrass","canarygrass; Postemergence, 16 g ai/ha",5
same,Canarygrass plant response rating,"canarygrass; Postemergence, 31 g ai/ha",15
same,Canarygrass plant response rating,"canarygrass; Postemergence, 125 g ai/ha",20
same,Canarygrass plant response rating,"canarygrass; postemergence, 62 g ai/ha",15
same,"Plant response rating, Oat, Wild","oat, wild [5]; Postemergence, 16 g ai/ha",5
same,"Oat, Wild plant response rating","oat, wild [5]; Postemergence, 31 g ai/ha",15
same,"Oat, Wild plant response rating","oat, wild [5]; Postemergence, 125 g ai/ha",20
same,"Oat, Wild plant response rating","oat, wild [5]; postemergence, 62 g ai/ha",15
same,"Radish, Wild plant response rating","radish, wild; Postemergence, 31 g ai/ha",65
same,"Radish, Wild plant response rating","radish, wild; Postemergence, 125 g ai/ha",65
same,"Radish, Wild plant response rating","radish, wild; postemergence, 62 g ai/ha",65
same,"Plant response rating, Speedwell","speedwell; Postemergence, 16 g ai/ha",50
same,Speedwell plant response rating,"speedwell; Postemergence, 31 g ai/ha",70
same,Speedwell plant response rating,"speedwell; Postemergence, 125 g ai/ha",70
same,Speedwell plant response rating,"speedwell; postemergence, 62 g ai/ha",70
same,"Plant response rating (scale 0 to 100), Blackgrass",blackgrass; [9],0
same,"Plant response rating, Blackgrass",blackgrass; 31 g ai/ha,0
same,"Plant response rating, Blackgrass",blackgrass; 62 g ai/ha,10
same,"Plant response rating, Blackgrass",blackgrass; 125 g ai/ha,20
same,"Plant response rating, Chamomile","chamomile [6]; Postemergence, 16 g ai/ha",10
same,Chamomile plant response rating,"chamomile [6]; Postemergence, 31 g ai/ha",15
same,Chamomile plant response rating,"chamomile [6]; Postemergence, 125 g ai/ha",35
same,Chamomile plant response rating,"chamomile [6]; postemergence, 62 g ai/ha",15
same,"Plant response rating, Field Violet","field violet; Postemergence, 16 g ai/ha",35
same,Field Violet plant response rating,"field violet; Postemergence, 31 g ai/ha",50
same,Field Violet plant response rating,"field violet; Postemergence, 125 g ai/ha",70
same,Field Violet plant response rating,"field violet; postemergence, 62 g ai/ha",50
same,"Plant response rating, Oilseed Rape","oilseed rape; Postemergence, 16 g ai/ha",20
same,Oilseed Rape plant response rating,"oilseed rape; Postemergence, 31 g ai/ha",40
same,Oilseed Rape plant response rating,"oilseed rape; Postemergence, 125 g ai/ha",55
same,Oilseed Rape plant response rating,"oilseed rape; postemergence, 62 g ai/ha",40
same,"Plant response rating, Lambsquarters","lambsquarters [7]; Postemergence, 16 g ai/ha",55
same,Lambsquarters plant response rating,"lambsquarters [7]; Postemergence, 31 g ai/ha",60
same,Lambsquarters plant response rating,"lambsquarters [7]; Postemergence, 125 g ai/ha",75
same,Lambsquarters plant response rating,"lambsquarters [7]; postemergence, 62 g ai/ha",60
same,"Plant response rating (scale 0 to 100), Kochia",kochia; [9],5
same,"Plant response rating, Kochia",kochia; 62 g ai/ha,45
same,"Plant response rating, Kochia",kochia; 125 g ai/ha,100
same,"Plant response rating, Mustard, Wild","mustard, wild; Postemergence, 16 g ai/ha",25
same,"Mustard, Wild plant response rating","mustard, wild; Postemergence, 31 g ai/ha",55
same,"Mustard, Wild plant response rating","mustard, wild; Postemergence, 125 g ai/ha",70
same,"Mustard, Wild plant response rating","mustard, wild; postemergence, 62 g ai/ha",55
same,"Plant response rating, Bromegrass, Downy","bromegrass, downy [8]; Postemergence, 16 g ai/ha",10
same,"Bromegrass, Downy plant response rating","bromegrass, downy [8]; Postemergence, 31 g ai/ha",25
same,"Bromegrass, Downy plant response rating","bromegrass, downy [8]; Postemergence, 125 g ai/ha",30
same,"Bromegrass, Downy plant response rating","bromegrass, downy [8]; postemergence, 62 g ai/ha",25
